Reference: patent US9789096B2, “Methods and compositions for selective and targeted cancer therapy” (Board of Regents of the University of Texas System, priority 2013, dated 2017)

Tested on: HCC44
Assay: Cell viability dose-response, HCC44
Assay type: cell-based, human
Details: Homo sapiens, HCC44, Tables 3 and 4; read-out: IC50 (uM) vs indicated non-small cell lung cancer cell line HCC44
Method in brief: (§1)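 Compound is titrated onto cells seeded at 15% confluence and incubated four days in 5% FBS RPMI-1640 medium. ATP-based luminescence gives viability; duplicate means ±SEM define the dose-response curve.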

| Structure (SMILES) | IC50 |
| --- | --- |
| COc1ccc2nc(NC(=O)c3ccc([N+](=O)[O-])cc3)sc2c1 [SW001282-2] | 30.1 µM |
| COc1ccc2nc(NC(=O)c3ccc(N)cc3)sc2c1 [SW001286] | 3 µM |
| O=C(Nc1nc2ccccc2s1)c1ccc(-c2ccccc2)cc1 [SW001811] | 165 µM |
| O=C(Nc1nc2ccccc2s1)c1ccc([N+](=O)[O-])cc1 [SW003992] | 3500 µM |

Tested on: HCC95
Assay: Cell viability dose-response, HCC95
Assay type: cell-based
Details: Homo sapiens, Tables 3 and 4, read-out: IC50 (uM) vs indicated non-small cell lung cancer cell line HCC95
Method: (§2) FIG. 6A. […] Cell viability is plotted vs. compound concentration. Compound was added to cells plated at 15% confluence in 96-well plates in RPMI-1640 media supplemented with 5% Fetal Bovine Serum and 2 mM L-Glutamine. After 4 days of incubation, ATP levels were measured using Cell Titer Glo (Promega). Data are presented as the average of 2 replicates ±SEM.
(§3) Selectivity may be measured by the half maximal inhibitory concentration (IC50), which, as used herein, is a measure of the effectiveness of a compound in killing cells. This quantitative measure indicates how much of a particular compound is needed to kill a particular cell population by half (e.g., as indicated by the amount of ATP). […] The IC50 can be determined by constructing a dose-response curve. The lower the IC50, the higher the potency, and the greater the difference between IC50 values for different cell lines (e.g., sensitive lines vs. insensitive lines, and sensitive lines vs. normal lines) the greater the selectivity. […]
(§4) With this information, we synthesized and tested a series of small molecules derived in conception from the oxalamide and chromone scaffold including N-acyl ureas, as shown in Tables 6-8. Each compound was tested in a 12-point dose-response study starting at 50 micromolar and decreasing in 3-fold increments to sub-nanomolar concentrations, in duplicate. Additionally, one or more additional cell line was tested in the same way.

| Structure (SMILES) | IC50 |
| --- | --- |
| COc1ccc2nc(NC(=O)c3ccc([N+](=O)[O-])cc3)sc2c1 [SW001282-2] | 19.6 µM |
| COc1ccc2nc(NC(=O)c3ccc(N)cc3)sc2c1 [SW001286] | 2 µM |
| O=C(Nc1nc2ccccc2s1)c1ccc(-c2ccccc2)cc1 [SW001811] | 58 µM |
| O=C(Nc1nc2ccccc2s1)c1ccc([N+](=O)[O-])cc1 [SW003992] | 2270 µM |

Tested on: H1819
Assay: Cell viability dose-response, H1819
Assay type: cell-based, human
Details: Homo sapiens, NCI-H1819, Tables 3 and 4; read-out: IC50 (uM) vs indicated non-small cell lung cancer cell line H1819
Method in brief: (§5)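 Cells plated at 15% confluence in RPMI-1640 with 5% FBS and 2 mM L-glutamine, treated with compound in a 12-point, 3-fold dilution series from 50 micromolar, in duplicate. ATP measured by Cell Titer Glo after 4 days; IC50 taken from the dose-response curve.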

| Structure (SMILES) | IC50 |
| --- | --- |
| COc1ccc2nc(NC(=O)c3ccc(N)cc3)sc2c1 [SW001286] | 24 µM |
| O=C(Nc1nc2ccccc2s1)c1ccc(-c2ccccc2)cc1 [SW001811] | 59 µM |
| O=C(Nc1nc2ccccc2s1)c1ccc([N+](=O)[O-])cc1 [SW003992] | 358 µM |

Tested on: H2073
Assay: Cell viability dose-response, H2073
Assay type: cell-based, human
Details: Homo sapiens, NCI-H2073, Tables 3 and 4; read-out: IC50 (uM) vs indicated non-small cell lung cancer cell line H2073
Method in brief: as §1

| Structure (SMILES) | IC50 |
| --- | --- |
| COc1ccc2nc(NC(=O)c3ccc([N+](=O)[O-])cc3)sc2c1 [SW001282-2] | 0.752 µM |
| COc1ccc2nc(NC(=O)c3ccc(N)cc3)sc2c1 [SW001286] | 0.3 µM |
| O=C(Nc1nc2ccccc2s1)c1ccc([N+](=O)[O-])cc1 [SW003992] | 0.65 µM |

Tested on: H2009
Assay: Cell viability dose-response, H2009
Assay type: cell-based, human
Details: Homo sapiens, NCI-H2009; Tables 3 and 4; read-out: IC50 (uM) vs indicated non-small cell lung cancer cell line H2009
Method in brief: as §1

| Structure (SMILES) | IC50 |
| --- | --- |
| COc1ccc2nc(NC(=O)c3ccc([N+](=O)[O-])cc3)sc2c1 [SW001282-2] | 2.81 µM |
| COc1ccc2nc(NC(=O)c3ccc(N)cc3)sc2c1 [SW001286] | 22 µM |
| O=C(Nc1nc2ccccc2s1)c1ccc(-c2ccccc2)cc1 [SW001811] | 125 µM |

Tested on: H1993
Assay: Cell viability dose-response, H1993
Assay type: cell-based
Details: Homo sapiens, NCI-H1993; Tables 3 and 4; read-out: IC50 (uM) vs indicated non-small cell lung cancer cell line H1993
Method: as §2, §3, §4

| Structure (SMILES) | IC50 |
| --- | --- |
| COc1ccc2nc(NC(=O)c3ccc(N)cc3)sc2c1 [SW001286] | 27 µM |
| O=C(Nc1nc2ccccc2s1)c1ccc(-c2ccccc2)cc1 [SW001811] | 85 µM |
| O=C(Nc1nc2ccccc2s1)c1ccc([N+](=O)[O-])cc1 [SW003992] | 524 µM |

Tested on: H1395
Assay: Cell viability dose-response, H1395
Assay type: cell-based
Details: Homo sapiens, NCI-H1395; Tables 3 and 4; read-out: IC50 (uM) vs indicated non-small cell lung cancer cell line H1395
Method: as §2, §3, §4

| Structure (SMILES) | IC50 |
| --- | --- |
| COc1ccc2nc(NC(=O)c3ccc(N)cc3)sc2c1 [SW001286] | 35 µM |
| O=C(Nc1nc2ccccc2s1)c1ccc(-c2ccccc2)cc1 [SW001811] | 185 µM |
| O=C(Nc1nc2ccccc2s1)c1ccc([N+](=O)[O-])cc1 [SW003992] | 1580 µM |

Tested on: H1155
Assay: Cell viability dose-response, H1155
Assay type: cell-based
Details: Homo sapiens, NCI-H1155; Tables 3 and 4; read-out: IC50 (uM) vs indicated non-small cell lung cancer cell line H1155
Method: as §2, §3, §4

| Structure (SMILES) | IC50 |
| --- | --- |
| COc1ccc2nc(NC(=O)c3ccc(N)cc3)sc2c1 [SW001286] | 25 µM |
| O=C(Nc1nc2ccccc2s1)c1ccc(-c2ccccc2)cc1 [SW001811] | 125 µM |
| O=C(Nc1nc2ccccc2s1)c1ccc([N+](=O)[O-])cc1 [SW003992] | 2870 µM |

Tested on: HCC4017
Assay: Cell viability dose-response, HCC4017
Assay type: cell-based, human
Details: Homo sapiens, HCC4017, Tables 3 and 4; read-out: IC50 (uM) vs indicated non-small cell lung cancer cell line HCC4017
Method: as §2, §3, §4

| Structure (SMILES) | IC50 |
| --- | --- |
| COc1ccc2nc(NC(=O)c3ccc(N)cc3)sc2c1 [SW001286] | 35 µM |
| O=C(Nc1nc2ccccc2s1)c1ccc(-c2ccccc2)cc1 [SW001811] | 120 µM |
| O=C(Nc1nc2ccccc2s1)c1ccc([N+](=O)[O-])cc1 [SW003992] | 1440 µM |

Tested on: H460
Assay: Cell viability dose-response, H460
Assay type: cell-based
Details: Homo sapiens, NCI-H460; Tables 3 and 4; read-out: IC50 (uM) vs indicated non-small cell lung cancer cell line H460
Method: as §2, §3, §4

| Structure (SMILES) | IC50 |
| --- | --- |
| COc1ccc2nc(NC(=O)c3ccc([N+](=O)[O-])cc3)sc2c1 [SW001282-2] | 0.512 µM |
| COc1ccc2nc(NC(=O)c3ccc(N)cc3)sc2c1 [SW001286] | 0.4 µM |
| O=C(Nc1nc2ccccc2s1)c1ccc(-c2ccccc2)cc1 [SW001811] | 450 µM |

Tested on: HBEC30KT
Assay: Cell viability (ATP, Cell Titer Glo, 4 days), HBEC30KT
Assay type: cell-based, human
Details: Homo sapiens, Tables 3 and 4; read-out: HBEC30KT IC50
Method: as §2, §3

| Structure (SMILES) | IC50 |
| --- | --- |
| COc1ccc2nc(NC(=O)c3ccc([N+](=O)[O-])cc3)sc2c1 [SW001282-2] | 49.2 µM |
| COc1ccc2nc(NC(=O)c3ccc(N)cc3)sc2c1 [SW001286] | 130 µM |
| O=C(Nc1nc2ccccc2s1)c1ccc(-c2ccccc2)cc1 [SW001811] | 348 µM |
| O=C(Nc1nc2ccccc2s1)c1ccc([N+](=O)[O-])cc1 [SW003992] | 1630 µM |

Tested on: HCC366
Assay: Cell viability dose-response, HCC366
Assay type: cell-based
Details: Homo sapiens, Tables 3 and 4, read-out: IC50 (uM) vs indicated non-small cell lung cancer cell line HCC366
Method: as §2, §3, §4

| Structure (SMILES) | IC50 |
| --- | --- |
| COc1ccc2nc(NC(=O)c3ccc(N)cc3)sc2c1 [SW001286] | 35 µM |
| O=C(Nc1nc2ccccc2s1)c1ccc(-c2ccccc2)cc1 [SW001811] | 220 µM |
| O=C(Nc1nc2ccccc2s1)c1ccc([N+](=O)[O-])cc1 [SW003992] | 1040 µM |

Tested on: H2122
Assay: Cell viability dose-response, H2122
Assay type: cell-based, human
Details: Homo sapiens, NCI-H2122, Table 9, competitor; read-out: IC50 to H2122 cells
Method in brief: as §5

| Structure (SMILES) | IC50 |
| --- | --- |
| COc1ccc2nc(NC(=O)c3ccc(N)cc3)sc2c1 [SW001286] | 0.04 µM |

Same assay, conditions: Homo sapiens, NCI-H2122, Tables 3 and 4; read-out: IC50 (uM) vs indicated non-small cell lung cancer cell line H2122

| Structure (SMILES) | IC50 |
| --- | --- |
| COc1ccc2nc(NC(=O)c3ccc([N+](=O)[O-])cc3)sc2c1 [SW001282-2] | 0.159 µM |
| COc1ccc2nc(NC(=O)c3ccc(N)cc3)sc2c1 [SW001286] | 0.048 µM |
| O=C(Nc1nc2ccccc2s1)c1ccc(-c2ccccc2)cc1 [SW001811] | 0.7 µM |
| O=C(Nc1nc2ccccc2s1)c1ccc([N+](=O)[O-])cc1 [SW003992] | 0.14 µM |
